Like-named read-outs stand apart in the source and are kept apart here.
Assays:
[1] = Stability / reaction kinetics by proton NMR (half-life); assay type: physicochemical
Text: Proton NMR was used to determine the half-lives for chloro- and bromomethyl-MIBG (Table 1). These analogs react with nucleophiles via an SN2 mechanism; therefore, the rate of the reaction depends on the strength and concentration of the nucleophile as well as the nature of the leaving group. Thus, the half-lives of the analogs are predictably longer in buffer than they are in buffer with added glutathione (a relatively strong nucleophile) and, under the same conditions, the bromo analog (better leaving group) reacts faster than the chloro analog.

NET = target: T1, NET (Homo sapiens, UniProt P23975); assay: NET competitive binding assay ([125I]MIBG displacement, SK-N-SH cells); details: 5 μM test compound, 2 hr incubation
T1 construct: endogenous in cells; host or cells: SK-N-SH neuroblastoma cells
T1 sequence (P23975 whole entry): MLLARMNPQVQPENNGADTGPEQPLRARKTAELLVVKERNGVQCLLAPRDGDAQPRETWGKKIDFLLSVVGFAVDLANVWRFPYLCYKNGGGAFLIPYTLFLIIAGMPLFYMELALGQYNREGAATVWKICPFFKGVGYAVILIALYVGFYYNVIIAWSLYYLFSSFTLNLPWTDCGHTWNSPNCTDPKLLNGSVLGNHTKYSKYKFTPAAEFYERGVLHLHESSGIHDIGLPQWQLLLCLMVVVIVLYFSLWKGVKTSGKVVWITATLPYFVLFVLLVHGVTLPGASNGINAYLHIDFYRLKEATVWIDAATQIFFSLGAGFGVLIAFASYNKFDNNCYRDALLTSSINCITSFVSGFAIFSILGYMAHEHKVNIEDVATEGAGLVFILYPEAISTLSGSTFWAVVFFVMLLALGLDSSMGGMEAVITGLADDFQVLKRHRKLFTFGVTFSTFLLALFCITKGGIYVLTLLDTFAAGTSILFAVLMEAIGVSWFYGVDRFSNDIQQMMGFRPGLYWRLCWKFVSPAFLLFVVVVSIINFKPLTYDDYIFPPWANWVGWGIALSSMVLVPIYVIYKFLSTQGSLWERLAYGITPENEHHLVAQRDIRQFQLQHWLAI
Description: An assay to assess binding of various MIBG-analogs to the NET was performed by published methods (Vaidynathan et al, Nucl. Med. Commun. 25:947-955 (2004), Vaidynathan et al, Bioorg. Med. Chem. 12:1649-1656 (2004), Vaidynathan et al, Bioconjugate Chem. 12:798-806 (2001), Vaidynathan et al, Eur. J. Nucl. Med. Mol. Imaging 31:1362-1370 (2004)). In brief, neuroblastoma SK—N—SH cells (moderate levels of NET) were treated with [^125I]MIBG and with increasing concentrations of unlabeled MIBG or MIBG-analogs. At the end of a 2 hr incubation and appropriate work-up, the cell-bound radioactivity was counted. Total cell-bound radioactivity minus non-specific cell-bound radioactivity gave a value for specific binding which was plotted in FIG. 9 against the concentration of test compounds. At 5 μM, cold MIBG displaced “100%” of the labeled-MIBG (i.e., “zero” cell-bound radioactivity). At 5 μM, chloromethyl-MIBG displaced 83%; the disulfide MIBG-SS-ethyl and the ester MIBG-phenylbutyrate displaced 50-55%; and hydroxymethyl-MIBG displaced 27%.

SK—N-BE(2c) (high NET) = assay: Glutathione depletion in vitro, SK-N-BE(2c); assay type: cell-based
Description: (§1) The NB cell line SK—N-BE(2c) (high net) was treated with MIBG, MIBG-disulfide dimer (MIGB-S—S-MIBG), chloromethyl-MIBG (cmMIBG), and BSO. For comparison, the human breast cancer line MCF7 (no NET) was treated with chloromethyl-MIBG and BSO. At specific times, intracellular glutathione in drug-treated cells was determined relative to that in untreated cells (control).
SK—N-BE(2c) (high NET) cells were treated with a single concentration of chloromethyl-MIBG (25 μM at t=0). Glutathione concentrations in treated and untreated cells were measured at t=0.5, 1, 2, 3 and 4 hrs. Glutathione levels in drug-treated cells progressively fell, with a concentration 50% that of control at t 4 hrs (FIG. 10B).
(§2) Cells were exposed to 5 μM chloromethyl-MIBG (cmMIBG), 25 μM BSO and a combination of 5 μM chloromethyl-MIBG+25 μM BSO (both) for 7 hrs. Compared to controls, chloromethyl-MIBG alone depleted glutathione by about 30% in SK—N—Be(2c) cells and 8% in MCF7. BSO, as expected, depleted MCF7 and SK—N—Be(2c) by similar amounts (42 and 54% of controls, respectively). In combination studies, chloromethyl-MIBG+BSO depleted levels by about 85% in the SK—N—Be(2c) cells and had much less effect on the MCF7 cells with glutathione reduced by 49% relative to controls.

MCF7 (no NET) = assay: Glutathione depletion in vitro, MCF7; assay type: cell-based, human; details: 5 μM chloromethyl-MIBG, 7 hrs
Description: as §1, §2

SK-N-BE(2c) (NET ++++) = assay: cells; assay type: cell-based
SK-N-MC (NET ++) = assay: Cytotoxicity, MTT assay, SK-N-MC; assay type: cell-based; details: 24 hr assay, 1% EtOH
MCF7 (NET 0) = assay: in vitro; assay type: cell-based, human
IMR32 (NET 0/+) = assay: Cytotoxicity, MTT assay, IMR32; assay type: cell-based; details: 24 hr assay, 1% EtOH
SK-N-SH (NET ++) = assay: Cytotoxicity, MTT assay, SK-N-SH; assay type: cell-based; details: read-out: Cytotoxicity IC50
[2] = Maximum tolerated dose (MTD) study in mice; assay type: in vivo
Description: The MTD study utilized 4 groups of 5 HRLN female nu/nu mice. Mice in each group were injected i.v. with a single dose of chloromethyl-MIBG in 1% DMSO in water [5, 10, 15, or 20 mg/kg (drug/animal)]. Drug solutions were made fresh at room temperature and injections were completed within 20 minutes of making the drug solution (under these conditions, the half-life of chloromethyl-MIBG was estimated to be >10 hrs). The dosing volume was 0.20 mL/20 g mouse (adjusted accordingly for body weight). Animals were followed for 21 days post-injection; body weight was monitored daily for 5 days and then biweekly. The “endpoint MTD” was defined as a mean weight loss of >20% or death of >10% of animals in a group.

[3] = 24 hr assay, 1% EtOH, read-out: Cytotoxicity IC50
[4] = 24 hr assay, single agent, 1% DMSO, read-out: Cytotoxicity IC50
[5] = 48 hr assay (24 h exposure + 24 h recovery), Table 3, read-out: Cytotoxicity IC50
[6] = 48 hr assay, + 1.5 μM desipramine (40 min pre-treatment, then co-incubation), read-out: Cytotoxicity IC50, NET inhibition experiment
[7] = 48 hr assay, single agent, Table 4, read-out: Cytotoxicity IC50
[8] = 48 hr assay, without desipramine, read-out: Cytotoxicity IC50, NET inhibition experiment
[9] = groups dosed at 10, 15 and 20 mg/kg i.v.

N=C(N)NCc1ccc(CCl)c(I)c1 [Chloromethyl-MIBG]
half-life of drug solution ([1]; 1% DMSO in water, room temperature, estimated): > 10 h
Half-life ([1]; 37° C., pH 7.4, BisTris buffer, 5% DMSO): 9.67 ± 0.417 h
Half-life w/10 eq GSH ([1]; 37° C., pH 7.4, BisTris buffer, 5% DMSO, 10 eq GSH): 50.6 ± 3.2 s
displacement of [125I]MIBG (specific cell-bound radioactivity) (NET): 83%
glutathione depletion compared to controls (SK—N-BE(2c) (high NET); 5 μM chloromethyl-MIBG, 7 hrs): about 30%
glutathione concentration relative to control (SK—N-BE(2c) (high NET); 25 μM at t=0, measured at 4 hrs): 50%
glutathione depletion compared to controls (MCF7 (no NET)): 8%
IC50 (SK-N-BE(2c) (NET ++++); [3]): 5 µM
IC50 (SK-N-BE(2c) (NET ++++); [4]): 5.7 ± 1.5 µM
IC50 (SK-N-BE(2c) (NET ++++); [5]): 4.63 ± 1.58 µM
IC50 (SK-N-BE(2c) (NET ++++); [6]): 14.3 ± 1.7 µM
IC50 (SK-N-BE(2c) (NET ++++); [7]): 4.6 ± 1.6 µM
IC50 (SK-N-BE(2c) (NET ++++); [8]): 3.2 ± 0.6 µM
increase in IC50 in presence of desipramine (SK-N-BE(2c) (NET ++++); with vs without desipramine): ~5 fold
IC50 (SK-N-MC (NET ++)): 25 µM
IC50 (MCF7 (NET 0); [3]): 50 µM
IC50 (MCF7 (NET 0); [4]): 56.9 ± 6.2 µM
IC50 (MCF7 (NET 0); [5]): 14.3 ± 2.13 µM
IC50 (MCF7 (NET 0); [6]): 20.2 ± 1.9 µM
IC50 (MCF7 (NET 0); [7]): 14.3 ± 2.1 µM
IC50 (MCF7 (NET 0); [8]): 19.8 ± 1.3 µM
IC50 (IMR32 (NET 0/+)): 63 µM
IC50 (SK-N-SH (NET ++); 48 hr assay (24 h exposure + 24 h recovery), Table 3): 18.4 ± 9.1 µM
IC50 (SK-N-SH (NET ++); 48 hr assay, single agent, Table 4): 18.4 ± 9.1 µM
animal deaths over the course of the study ([2]; 5-20 mg/kg single i.v. dose, 21 days): no animal deaths
MTD ([2]; HRLN female nu/nu mice, single i.v. dose, 21 days follow-up): > 20 mg/kg
adverse signs upon drug injection [2, 9]: signs of hypoactivity, labored breathing, darkening of skin color, and/or seizures/tremors
time for adverse symptoms to go away [2, 9]: ≤ 30 s

From patent publication US20100104628A1, “METHOD OF TREATING NEUROBLASTOMA” (priority 2007, published 2010)
